Test results published in US20100239556A1, “PROMOTING ECM PRODUCTION BY FIBROBLAST CELLS AND/OR PROMOTING MIGRATION OF FIBROBLAST CELLS IN A BIOLOGICAL SYSTEM” (TGR BioScience Pty Ltd., priority 2006, published 2010).

Key:
[1] = Elution of peroxidase activity from INTEGRA (Sigmafast OPD detection)
Protocol: (§1) These experiments were performed by pre-incubating 1 cm×1 cm pieces of INTEGRA® with SBP (25 μg/ml) as described in Example 3 for either 30 minutes or 16 hours, control pieces were pre-incubated in DMEM only. After this time, the pieces of INTEGRA® were washed in fresh media to remove excess SBP solution, and placed into the wells of a 12-well culture plate pre-seeded with HFF cells (2×10^5cells/well) that were grown to confluency over three days. The media from these wells was collected after 24 and 48 hours with peroxidase activity measured (to determine the rate of elution of the proteins with peroxidase activity from the Integra) and the collagen content measured by ELISA (to ensure the eluted proteins with peroxidase activity retained the capacity to stimulate collagen production by the HFF cells). The peroxidase activity was assessed using the Sigmafast™ O-phenylenediamine dihydrochloride (OPD) detection method as per the manufacturers instructions. Briefly, 5 μl of sample was combined with 100 μl of reagent and relative peroxidase activity determined after 5-10 minutes incubation by measuring absorbance at 450 nm using a Wallac Victor Multilabel HTS counter.

HFF cells [2] = assay: Collagen I production stimulated by SBP eluted from INTEGRA (ELISA); assay type: cell-based, human; conditions: versus control INTEGRA pieces
Protocol: as §1

HFF cells [3] = assay: Soluble collagen I secreted by fibroblast-populated INTEGRA (ELISA); assay type: cell-based, human; conditions: SBP 12.5 μg/ml for 24 hours, ELISA after 72 hours
Protocol: Additional experiments were performed to determine if fibroblast cells populating a three-dimensional framework or scaffold could be stimulated to secrete soluble collagen I into the media bathing the three-dimensional framework or scaffold. For these experiments, HFF cells were seeded onto the INTEGRA® and allowed to populate the scaffold for two weeks under normal culture conditions (10% FCS supplementation). The populated scaffold was then stimulated with a protein having peroxidase activity by immersing it in basal media (DMEM) containing SBP (12.5 μg/ml) for 24 hours. The INTEGRA® was then placed into fresh DMEM and the collagen-I content of the media measured by ELISA after 72 hours.

HFF cells [4] = assay: Collagen I production in the presence of dexamethasone; assay type: cell-based, human
Protocol: Primary human foreskin fibroblast cells (HFF) were seeded into 96 well plates at a density of 1.2×10^4 cells/well and cultured overnight in 10% fetal bovine serum/Dulbecco's minimum essential media (10% FBS/DMEM) at 37° C. and 5% CO2. The cells were then starved overnight in serum free DMEM and triplicate wells treated for six hours with a range of doses of proteins with peroxidase activity; horse radish peroxidase (HRP; 0.2-50 ug/ml), Arthromyces ramosus peroxidase (ARP; 0.2-50 ug/ml), microperoxidase (MP; 8-500 ug/ml), soy bean peroxidase (SBP; 0.2-100 ug/ml) and lactoperoxidase (LP; 10-310 ug/ml) (all obtained from Sigma-Aldrich). At the end of the six hour treatment period, the media was aspirated and replaced with fresh serum free DMEM and the cells cultured for a further 72 hours. After 72 hours the culture media was collected for assessment of secreted, soluble collagen types I, III and VI as well as fibronectin protein and the cells assessed for viability/growth using an alamar blue fluorescent dye assay. This assay measures the reduction of oxidized, blue nonfluorescent Alamar Blue reagent to a pink fluorescent dye in the cell medium, such that the higher the amount of reduction, the greater the cell number and/or activity (O'Brien Eur J Biochem 267 2000). Briefly, cells were bathed in a 10% Alamar Blue/phosphate-buffered saline (PBS) solution for 30-60 minutes and fluorescence measured at wavelengths of 485 nm excitation and 595 nm emission using a Wallac Victor Multilabel HTS counter. Relative fluorescent units (RFU) for each sample were normalized to control wells (DMEM only treated cells) and data expressed as mean±standard error of the mean (sem) for triplicate wells. Experiments were repeated at least three times with the combined data from all experiments shown.
The amount of soluble collagen types I, III, and VI in HFF conditioned media was measured by a direct coat ELISA method using standard curves constructed from purified human collagen I, III or VI (extracted from human placenta; col I, BD Biosciences; col III and VI, Rocklands Immunochemicals) and fibronectin (extracted from human plasma, Chemicon). Samples and standards (20 μl/well) were added to a 384 well spectraplate (Packard BioScience) and left at room temperature (RT) overnight. […] After a final wash (6×PBS-T), enhancement solution was added for at least 10 minutes and fluorescence measured at excitation 340 nm and emission 615 nm using a Wallac Victor Multilabel HTS counter. The respective ECM concentration of each sample was determined from the standard curve (μg/ml) and normalized to control wells (DMEM only treated cells) with the mean±sem for triplicate wells calculated. […]

Substance | peroxidase activity eluted, pre-incubated 16 hours compared to 30 minutes [1] | peroxidase activity in the medium collected after 24 and 48 hours ([1]; 24 versus 48 hours elution) | ECM production (collagen I ELISA) by HFF cells exposed to eluted protein (HFF cells [2]) | increase in collagen I secreted into the media bathing the scaffold (HFF cells [3]) | increase in collagen I levels (HFF cells [4]; 3.1-25 μg/ml, no dexamethasone) | collagen accumulation in cells treated with both dexamethasone and ARP (HFF cells [4]; dexamethasone 20 μM)
soy bean peroxidase [SBP] | approximately one third more | identical | able to stimulate ECM production | 2-3 fold | – | –
Arthromyces ramosus peroxidase [ARP] | – | – | – | – | 4.5-7 fold | significant levels of collagen accumulation were still evident
